What was measured:
[1] = test system: Brine shrimp (Artemia salina) nauplii; experiment: in vivo; conditions: 24 h at 37° C., 10 nauplii per vial
Procedure: Brine shrimp lethality: Brine shrimp (Artemia salina) nauplii were hatched using brine shrimp eggs in a conical shaped vessel (1 L), filled with sterile artificial sea water (prepared using sea salt 38 g/L and adjusted to pH 8.5 using 1 N NaOH) under constant aeration for 48 h. After hatching, 10 nauplii were drawn through a pepette and placed in each vial containing 4.5 mL brine solution and added various concentrations of drug solutions and volume was made upto 5 mL using brine solution and maintained at 37° C. for 24 h under the light of incandescent lamps and surviving larvae were counted. Each experiment was conducted along with control (vehicle treated), at various concentrations of the test substance in each set that contains 6 tubes and the average results are reported. The percentage lethality was determined by comparing the mean mortal larvae of test and control tubes. LC50 values were obtained from the plot of concentration (μg) vs. percentage lethality. Podophyllotoxin was used as a positive control.
The corosolic acid analogs of this invention are found to show significant brine shrimp lethality (Table 3; brine shrimp lethality is expressed in LC50 at μM concentration; lower the LC50 value, higher is the activity).

Albino wistar rats = experiment: Hypoglycemic activity: inhibition of sucrose-induced raise in serum glucose levels (SGL); format: in vivo; design: Inhibitory rate (serum glucose level inhibitory rate): unit not given here; conditions: oral dose 1 mg/Kg; for SGL (mean ± SE): 20 mL/kg of 20% sucrose orally after 30 minutes, blood drawn one hour after treatment, groups of six rats; for Inhibitory rate (serum glucose level inhibitory rate): mean increase in serum glucose levels of treated vs control groups
Procedure: Hypoglycemic activity: Hypoglycemic activity was tested by the inhibition of sucrose-induced raise in serum glucose levels (SGL), by the test substances in Albino wistar rats. The procedure involves fasting the rats for overnight at ad libitum water, numbered weighed and randomly divided into groups of six animals each. Prior to treatment blood samples were drawn from sinus orbital plexus of all animals using heparin coated glass capillaries under mild ether anesthesia. The blood samples were tested for serum glucose levels using enzymatic GOD/POD method. […] SGL=(test OD/Standard OD)×100 and the results were expressed in mg/dL. All the groups were treated orally with corresponding test substances, standard, vehicle (5% gum acacia). After 30 minutes, all animals were given 20 mL/kg of 20% sucrose solution orally using gastric tube. One hour after treatment, blood samples were drawn again under mild ether anesthesia and tested for serum glucose levels in a same procedure as described above for initial serum glucose estimation. The data was subjected to statistical treatment using t-test and inhibitory rate was calculated by comparing mean increase in serum glucose levels of control and treated groups. The corosolic acid analogs of this invention are found to show better hypoglycemic activity (Table 1; hypoglycemic activity is expressed in serum glucose level inhibitory rate values; higher the inhibitory rate value, higher is the activity) than the corosolic acid.

5-Lipoxygenase = 5-Lipoxygenase inhibitory activity, colorimetric method (ferric xylenol orange, linoleic acid); format: biochemical
Procedure: 5-Lipoxygenase activity: The corosolic acid analogs were screened for their 5-Lipoxygenase inhibitory potential using colorimetric method. The assay mixture contained 50 mM phosphate buffer pH 6.3, 5-Lipoxygenase, various concentrations of test substances in dimethyl sulphoxide and linoleic acid in a total volume of 0.5 mL, after 5 min incubation of above reaction mixture, 0.5 mL ferric xylenol orange reagent was added and OD was measured after two minutes at 585 nm using spectrophotometer. Controls were run along with test in a similar manner except using vehicle instead of test substance solution. Percent inhibition was calculated by comparing absorbance of test solution with that of control.
The corosolic acid analogs of this invention are found to show good 5-lipoxygenase activity (Table 2; 5-lipoxygenase activity is expressed in % of inhibition at 100 μM and 250 μM; higher the % inhibitory values, higher is the activity).

| Compound | LC50 [1] [µM] | SGL (mean ± SE) (Albino wistar rats) [mg/dL] | Inhibitory rate (serum glucose level inhibitory rate) (Albino wistar rats) | % inhibition of 5-Lox activity (5-Lipoxygenase; 100 μM) [%] | % inhibition of 5-Lox activity (5-Lipoxygenase; 250 μM) [%] |
| --- | --- | --- | --- | --- | --- |
| 2-O-Acetylcorosolic acid and 3-O-acetylcorosolic acid [Compound 1] | 9.7 | 109.54 ± 2.80 | 32.75 | 15.47 | 24.05 |
| 3-O-acetyl-11-keto-β-boswellic acid [AKBA, reference compound] |  |  |  | 17.45 | 25.3 |
| CC(=O)O[C@@H]1C[C@]2(C)[C@H]3CC=C4[C@@H]5[C@@H](C)[C@H](C)CC[C@]5(C(=O)O)CC[C@@]4(C)[C@]3(C)CC[C@H]2C(C)(C)[C@H]1OC(C)=O [Compound 2, 2,3-Di-O-acetylcorosolic acid] | 1.8 |  |  | 20.08 | 44.54 |
| CC1CCC2(C(=O)O)CCC3(C)C(=CCC4C5(C)CC(OC(=O)c6cccnc6)C(O)C(C)(C)C5CCC43C)C2C1C (stereo not shown) [Compound 3, 2-O-Nicotinoylcorosolic acid] | 86.6 | 115.86 ± 3.77 | 13.9 | 28.54 | 53.19 |
| CC1CCC2(C(=O)O)CCC3(C)C(=CCC4C5(C)CC(OC(=O)CN)C(O)C(C)(C)C5CCC43C)C2C1C.Cl (stereo not shown) [Compound 4, 2-O-Glycylcorosolic acid hydrochloride] | 3.9 | 119.23 ± 9.58 | 26.8 | 17.04 | 27.83 |
| CC(N)C(=O)OC1CC2(C)C(CCC3(C)C2CC=C2C4C(C)C(C)CCC4(C(=O)O)CCC23C)C(C)(C)C1O.Cl (stereo not shown) [Compound 5, 2-O-Alanylcorosolic acid hydrochloride] | 3.4 | 113.49 ± 4.11 | 22.39 | 29.14 | 67.03 |
| COC(=O)C12CCC(C)C(C)C1C1=CCC3C4(C)CC(OC(=O)C=Cc5cc(OC)c(OC)c(OC)c5)C(O)C(C)(C)C4CCC3(C)C1(C)CC2 (stereo not shown) [Compound 6, Methyl 2-O-(3,4,5-trimethoxycinnamoyl)corosolate] | > 200 | 114.15 ± 6.62 | 21.94 |  | 13.47 |
| CC1CCC2(C(=O)O)CCC3(C)C(=CCC4C5(C)CC6OS(=O)(=O)OC6C(C)(C)C5CCC43C)C2C1C (stereo not drawn) [Compound 7, 2α,3β-Dihydroxyurs-12-en-28-oic acid 2,3-cyclicsulphate] | 15 |  |  |  | 16.90 |
| C[C@H]1[C@H](C)CC[C@]2(C(N)=O)CC[C@]3(C)C(=CC[C@@H]4[C@@]5(C)C[C@@H](O)[C@H](O)C(C)(C)[C@@H]5CC[C@]43C)[C@H]12 [Compound 8, Corosolamide] | 29 | 110.14 ± 3.18 | 18.15 | 26.13 | 51.29 |
| C[C@H]1[C@H](C)CC[C@]2(C(=O)Nc3ccccc3)CC[C@]3(C)C(=CC[C@@H]4[C@@]5(C)C[C@@H](O)[C@H](O)C(C)(C)[C@@H]5CC[C@]43C)[C@H]12 [Compound 9, N-Phenylcorosolamide] | > 100 | 117.97 ± 0.37 | 27.58 | 8.16 | 21.77 |
| CC1CCC2(C(=O)NCCN)CCC3(C)C(=CCC4C5(C)CC(O)C(O)C(C)(C)C5CCC43C)C2C1C (stereo not shown) [Compound 10, N-(2-Aminoethyl)corosolamide] | 97.2 | 113.57 ± 3.80 | 30.28 | 21.74 | 40.87 |
| CC1CCC2(C(=O)N3CCNCC3)CCC3(C)C(=CCC4C5(C)CC(O)C(O)C(C)(C)C5CCC43C)C2C1C (stereo not shown) [Compound 11, N-(Corosolyl)piperazine] | 9.2 | 107.88 ± 4.61 | 19.83 | 35.42 | 64.99 |
| CC1CCC2(C(=O)NCCO)CCC3(C)C(=CCC4C5(C)CC(O)C(O)C(C)(C)C5CCC43C)C2C1C (stereo not shown) [Compound 12, N-(2-Hydroxyethyl)corosolamide] | > 100 | 103.49 ± 7.12 | 36.47 | 17.74 | 32.96 |
| COC(=O)[C@]12CC[C@@H](C)[C@H](C)[C@H]1C1=CC[C@@H]3[C@@]4(C)C[C@@H](O)[C@H](O)C(C)(C)[C@@H]4CC[C@@]3(C)[C@]1(C)CC2 [Compound 13, Methyl corosolate] | 10.2 | 118.94 ± 8.61 | 11.6 | 17.3 | 40.04 |
| COC(=O)[C@]12CC[C@@H](C)[C@H](C)[C@H]1C1=CC(=O)[C@@H]3[C@@]4(C)C[C@@H](O)[C@H](O)C(C)(C)[C@@H]4CC[C@@]3(C)[C@]1(C)CC2 [Compound 15, Methyl 11-ketocorosolate] | 40.9 | 120.79 ± 4.85 | 17.4 |  | 25.09 |
| C[C@H]1[C@H](C)CC[C@]2(C(=O)O)CC[C@]3(C)C(=CC(=O)[C@@H]4[C@@]5(C)C[C@@H](O)[C@H](O)C(C)(C)[C@@H]5CC[C@]43C)[C@H]12 [Compound 17, 11-Ketocorosolic acid] |  | 120.90 ± 9.66 | 25.78 |  |  |
| CC(=O)OC1CC2(C)C(CCC3(C)C2C(=O)C=C2C4C(C)C(C)CCC4(C(=O)O)CCC23C)C(C)(C)C1OC(C)=O (stereo not shown) [Compound 18, Diacetyl-11-ketocorosolic acid] | 87.7 |  |  |  |  |
| C[C@H]1[C@H](C)CC[C@]2(C(=O)O)CC[C@]3(C)C(=CC(=O)[C@@H]4[C@@]5(C)C[C@H]6OS(=O)(=O)O[C@@H]6C(C)(C)[C@@H]5CC[C@]43C)[C@H]12 [Compound 19, 2α,3β-Dihydroxyurs-12-en-11-one-28-oic acid 2,3-cyclicsulphate] | > 100 | 129.16 ± 4.66 | 11.67 |  | 11.81 |
| C[C@H]1[C@H](C)CC[C@]2(C(N)=O)CC[C@]3(C)C(=CC(=O)[C@@H]4[C@@]5(C)C[C@@H](O)[C@H](O)C(C)(C)[C@@H]5CC[C@]43C)[C@H]12 [Compound 20, 11-Ketocorosolamide] | > 100 | 142.81 ± 7.30 | 12.33 | 18.57 | 42.79 |
| C[C@H]1[C@H](C)CC[C@]2(C(N)=O)CC[C@]3(C)C(=CC(O)[C@@H]4[C@@]5(C)C[C@@H](O)[C@H](O)C(C)(C)[C@@H]5CC[C@]43C)[C@H]12 (stereo partly shown) [Compound 21, 11-Hydroxycorosolamide] | > 100 | 121.57 ± 2.62 | 25.37 | 25.57 | 50.83 |
| COC(=O)C12CCC(C)C(C)C1C1=CC(O)C3C4(C)CC(O)C(O)C(C)(C)C4CCC3(C)C1(C)CC2 (stereo not shown) [Compound 22, Methyl 11-hydroxycorosolate] | 19.9 |  |  | 24.56 | 49.40 |
| CC(Cc1ccc(O)c(O)c1)C(C)Cc1ccc(O)c(O)c1 (stereo not shown) [NDGA, Nordihydroguaiaretic acid, reference compound] |  |  |  | 70.4 | 91.55 |
| Methyl diacetyl-11-ketocorosolate [Compound 16] | 82.3 |  |  |  | 3.82 |
| Methyl diacetylcorosolate [Compound 14] | 42.1 |  |  |  | 1.9 |

Source: patent publication US7893263B2, “Structural analogs of corosolic acid having anti-diabetic and anti-inflammatory properties” (Laila Nutraceuticals, priority 2004, dated 2011)
